Like-named read-outs stand apart in the source and are kept apart here. Marks after values point to notes of the source that are not given here. Where a SMILES comes first, the peptide text is derived from it. Where no end group is shown, it is not given here. [ ]: non-standard residue; d: D form.
Assays:
chymotrypsin = chymotrypsin (Bos taurus, UniProt P00766)
Procedure: One of the hurdles in developing peptide-based antimicrobials is peptide stability to protease (Wang, G. (2010) Antimicrobial Peptides: Discovery, Design and Novel Therapeutic Strategies, CABI, England). […] This was done by modifying the standard microdilution antimicrobial assays (Wang, G. (2008) J. Biol. Chem., 283:32637-32643). Specifically, the bacterial wells with a high peptide concentration (e.g. 100 μM) are duplicated (e.g., two for antimicrobial assays and two for protease stability assays). As an illustration, chymotrypsin was applied to the duplicated wells at a peptide:protease molar ratio of 25:1. Numerous peptides were screened in this manner.
To identify protease-resistant peptide templates, 30 synthetic peptides were screened (Table 9; Wang et al. (2008) Antimicrob. Agents Chemother., 52:3438-3440). A standard microdilution assay protocol (Li et al. (2006) J. Am. Chem. Soc., 128:5776-5785) was modified to include proteases into the duplicated wells with high concentrations of peptide so that both antimicrobial activity and protease stability could be evaluated simultaneously. […] (peptide:protease molar ratio of 40:1).

Gram-negative bacteria = test system: Gram-negative bacteria; design: key: Y, Yes; N, No; conditions: data from the APD; cited from earlier work
Gram-positive bacteria = test system: Gram-positive bacteria; design: key: Y, Yes; N, No; conditions: data from the APD; cited from earlier work
human erythrocytes = conditions: human red blood cells; Table 6
Procedure: Peptide hemolysis was assayed using an established protocol (Malmsten et al. (2011) PLoS One 6:e16400). In brief, fresh blood, obtained from the UNMC Blood Bank, was washed three times with PBS buffer and made into a 5% solution. To 90 μL of this solution, 10 μL of a peptide solution was added and incubated at 37° C. for one hour. After centrifugation at 13,000 rpm, aliquots of the supernatant were transferred to a fresh 96 well microplate. The absorbance of the solutions was measured at 545 nm to detect the amount of hemoglobin released. The percent lysis was calculated by assuming 100% release when treated with 2% Triton X-100 and no lysis (0%) when treated with PBS buffer. HL50 was the peptide concentration that caused 50% lysis of human erythrocytes. The cell selectivity (CS) indexes were calculated as the ratio of HL50 to the MIC of the peptide against S. aureus USA300.
The hemolytic effects of the six peptides were also compared on human red blood cells (hRBC) using an established protocol (Malmsten et al. (2011) PLoS One 6:e16400). […] A high TI indicates good cell selectivity.
Peptide hemolysis was assayed using an established protocol (Menousek et al. (2012) Int. J. Antimicrob. Agents 39:402-406; Malmsten et al. (2011) PLoS One 6:e16400). Briefly, blood cells were washed three times with phosphate-buffered saline (PBS) and were diluted to a 5% solution. Following peptide treatment, incubation at 37° C. for 1 hour and centrifugation at 13,000 rpm, aliquots of the supernatant were transferred to a fresh 96-well microplate. To assess peptide cytotoxicity, the amount of hemoglobin released was measured at 545 nm. Percent lysis was calculated by assuming 100% release when human blood cells were treated with 2% Triton X-100 and 0% release when they were incubated with PBS buffer.

[1] = E. coli K12 growth with chymotrypsin, peptide:protease molar ratio 25:1
[2] = antimicrobial assay with chymotrypsin, peptide:protease molar ratio 40:1, E. coli K12 for peptides inactive against S. aureus

| Molecule | Stability (to chymotrypsin) (chymotrypsin; [2]) | Activity G− (activity against Gram-negative bacteria) (Gram-negative bacteria) | Activity G+ (activity against Gram-positive bacteria) (Gram-positive bacteria) | further results |
| --- | --- | --- | --- | --- |
| GKEFKRIVQRIKDFLRNLVPR [GK-21] | − |  |  | Stability (to chymotrypsin) (chymotrypsin; [1]): − |
| Temporin-SHf: temporin, APD ID 1534, SEQ ID NO: 10 (FFFLSRIF; listed as Pelophylax saharicus) |  | Y/Y | Y/Y |  |
| Temporin B: temporin, APD ID 95, SEQ ID NO: 19 (LLPIVGNLLKSLL; listed as Rana temporaria) |  | N | Y |  |
| Temporin L: temporin, APD ID 99, SEQ ID NO: 11 (FVQWFSKFLGRIL; listed as Rana temporaria) |  | Y/Y | Y/Y |  |
| Temporin A: temporin, APD ID 94, SEQ ID NO: 14 (FLPLIGRVLSGIL; listed as Rana temporaria) |  | N | Y |  |
| FFHHIFRGIVHVGKTIHRLVTG [Piscidin 1, reference compound] |  |  |  | HL50 (μM), concentration at which 50% red blood cells are lysed (human erythrocytes): 20 µM |
| IWLTALKFLGKHAAKHLAKQQLSKL [Lycotoxin I, reference compound] |  |  |  | HL50 (μM), concentration at which 50% red blood cells are lysed (human erythrocytes): 125 µM |
| EKIGKEFKRIVQRIKDFLRN [EK-20] | − |  |  |  |
| FFGKVLKLIRKIF-NH2 [DASamP1] |  |  |  | HL50 (μM), concentration at which 50% red blood cells are lysed (human erythrocytes): 25 µM |
| Temporin F: temporin, APD ID 98, SEQ ID NO: 15 (FLPLIGKVLSGIL; listed as Rana temporaria) |  | Y/Y | Y/Y |  |
| GFKDLLKGAAKALVKTVLF-NH2 [Ascaphin-8, reference compound] |  |  |  | HL50 (μM), concentration at which 50% red blood cells are lysed (human erythrocytes): 45 µM |
| Temporin H: temporin, APD ID 859, SEQ ID NO: 17 (LSPNLLKSLL; listed as Rana temporaria) |  | N | Y |  |
| IKWKKLLRAAKRIL-NH2 [DASamP2] |  |  |  | HL50 (μM), concentration at which 50% red blood cells are lysed (human erythrocytes): 75 µM |
| KIGKEFKRIVQRIKDFLRNLVP [KI-22] | − |  |  | Stability (to chymotrypsin) (chymotrypsin; [1]): − |
| GFKRIVQRIKDFLRNLV-NH2 [GF-17] | − |  |  | Stability (to chymotrypsin) (chymotrypsin; [1]): − |
| GFKRIVQRIKDFLRNL-NH2 [GF-16] | − |  |  |  |
| Temporin E: temporin, APD ID 97, SEQ ID NO: 16 (VLPIIGNLLNSLL; listed as Rana temporaria) |  | N | Y |  |
| GRFKRFRKKFKKLFKKLS-NH2 [BMAP-18] | − |  |  |  |
| Temporin K: temporin, APD ID 100, SEQ ID NO: 20 (LLPNLLKSLL; listed as Rana temporaria) |  | N | Y |  |
| GLLGLLGSVVSHVVPAIVGHF-NH2 [Maculatin 1.3, reference compound] |  |  |  | HL50 (μM), concentration at which 50% red blood cells are lysed (human erythrocytes): 25 µM |
| CC[C@@H](C)[C@@H](NC(=O)[C@H](CCCNC(=N)N)NC(=O)[C@H](CCC(N)=O)NC(=O)[C@@H](NC(=O)[C@H](NC(=O)[C@H](CCCNC(=N)N)NC(=O)[C@H](CCCCN)NC(=O)[C@H](Cc1ccccc1)NC(=O)CN)[C@H](C)CC)C(C)C)C(=O)N[C@@H](CCCCN)C(=O)N[C@@H](CC(=O)O)C(=O)N[C@@H](Cc1ccccc1)C(=O)N[C@H](CC(C)C)C(=O)N[C@@H](CCCNC(=N)N)C(=O)N[C@@H](CC(N)=O)C(=O)N[C@@H](CC(C)C)C(=O)N[C@H](C(N)=O)C(C)C [GF-17d3] (H-GFKR[dI]VQR[dI]KDF[dL]RNLV-NH2; N-terminus assumed) | +^c |  |  | Stability (to chymotrypsin) (chymotrypsin; [1]): + |
| FKRIVQRIKDFLRNLVPRTE [FK-21] | − |  |  |  |
